# Source: patent US9062284B2, “Uses and detection of herbicide resistance genes for resistance to aryloxyalkanoate herbicides” (Dow ArgoSciences LLC, priority 2007, dated 2015)
# Key:
# [1] = tested on: PAT/Cry1F-transformed tobacco; assay: 2,4-D DMA response of PAT/Cry1F transformed control T0 tobacco; format: in vivo, Nicotiana tabacum; conditions: 14 days after application
# Source text: (§1) Following the acclimation in the greenhouse T0 plants were then randomly assigned to various rates of 2,4-D DMA ranging from 140 to 2240 g ae/ha at […] increments. For tobacco, 140 g ae/ha 2,4-D is an effective dose to distinguish sensitive plants from ones with meaningful levels of resistance.
# [2] = tested on: AAD-13 (v1) gene T0 tobacco plants; assay: 2,4-D DMA response of AAD-13 (v1) T0 tobacco; format: in vivo, Nicotiana tabacum; conditions: for % Injury 20-40% (individuals) / % Injury <20% (individuals) / % Injury >40% (individuals) / % Injury Ave: 14 days after application
# Source text: as §1
# [3] = tested on: Wildtype (untransformed control) Arabidopsis; assay: R-dichlorprop response of wildtype Arabidopsis; format: in vivo, Arabidopsis thaliana; conditions: 800 g ae/ha postemergence, 14 DAT
# Protocol: All auxin herbicide applications were made using the DeVilbiss sprayer as described above to apply 703 L/ha spray volume (0.4 ml solution/3-inch pot) or applied by track sprayer in a 187 L/ha spray volume. 2,4-D used was either technical grade (Sigma, St. Louis, Mo.) dissolved in DMSO and diluted in water (<1% DMSO final concentration) or the commercial dimethylamine salt formulation (456 g ae/L, NuFarm, St Joseph, Mo.). Dichlorprop used was commercial grade formulated as potassium salt of R-dichlorprop (600 g ai/L, AH Marks). As herbicide rates increased beyond 800 g ae/ha, the pH of the spray solution became exceedingly acidic, burning the leaves of young, tender Arabidopsis plants and complicating evaluation of the primary effects of the herbicides.
# The fact that AAD-1 (v3) will metabolize R-dichlorprop well enough to impart commercially acceptable tolerance is one distinguishing characteristic that separates the three genes (Table 12 and Example 7 of PCT/US2006/042133 (Wright et al., filed Oct. 27, 2006). AAD-1 and AAD-13 are considered R- and S-specific α-ketoglutarate dioxygenases, respectively.
# [4] = tested on: Segregating T2 AAD-13 (v1) Arabidopsis plants (pDAB4114.01.094); assay: Foliar pyridyloxyacetate response of segregating T2 AAD-13 (v1) Arabidopsis; format: in vivo, Arabidopsis thaliana
# Protocol: The ability of AAD-13 (v1) to provide resistance to other aryloxyalkanoate auxin herbicides in transgenic Arabidopsis was determined by foliar application of various substrates. T2 generation Arabidopsis seed was stratified, and sown into selection trays much like that of Arabidopsis (Example 6.4). A transformed-control line containing PAT and the insect resistance gene Cry1F was planted in a similar manner. Seedlings were transferred to individual 3-inch pots in the greenhouse. All plants were sprayed with the use of a track sprayer set at 187 L/ha. The plants were sprayed with a range of pyridyloxyacetate herbicides: 200-800 g ae/ha triclopyr (Garlon 3A, Dow AgroSciences) and 200-800 g ae/ha fluoroxypyr (Starane, Dow AgroSciences). The 2,4-D metabolite resulting from AAD-13 activity, 2,4-dichlorophenol (DCP, Sigma) (at a molar equivalent to 280-2240 g ae/ha of 2,4-D, technical grade will also be tested. All applications were formulated in water. Each treatment was replicated 3-4 times. Plants were evaluated at 3 and 14 days after treatment.
smiles,measurement,setting,value
"CNC.O=C(O)COc1ccc(Cl)cc1Cl [2,4-D DMA]",% Injury 20-40% (individuals),[1]; 140 g ae/ha,1
same,% Injury <20% (individuals),[1]; 140 g ae/ha,0
same,% Injury >40% (individuals),[1]; 140 g ae/ha,2
same,% Injury Ave,[1]; 140 g ae/ha,47.0%
same,% Injury 20-40% (individuals),[1]; 560 g ae/ha,0
same,% Injury <20% (individuals),[1]; 560 g ae/ha,0
same,% Injury >40% (individuals),[1]; 560 g ae/ha,3
same,% Injury Ave,[1]; 560 g ae/ha,75.0%
same,% Injury 20-40% (individuals),[1]; 2240 g ae/ha,0
same,% Injury <20% (individuals),[1]; 2240 g ae/ha,0
same,% Injury >40% (individuals),[1]; 2240 g ae/ha,3
same,% Injury Ave,[1]; 2240 g ae/ha,97.0%
same,% Injury 20-40% (individuals),[2]; 140 g ae/ha,0
same,% Injury <20% (individuals),[2]; 140 g ae/ha,2
same,% Injury >40% (individuals),[2]; 140 g ae/ha,0
same,% Injury Ave,[2]; 140 g ae/ha,8.0%
same,% Injury 20-40% (individuals),[2]; 560 g ae/ha,0
same,% Injury <20% (individuals),[2]; 560 g ae/ha,2
same,% Injury >40% (individuals),[2]; 560 g ae/ha,0
same,% Injury Ave,[2]; 560 g ae/ha,3.0%
same,% Injury 20-40% (individuals),[2]; 2240 g ae/ha,0
same,% Injury <20% (individuals),[2]; 2240 g ae/ha,2
same,% Injury >40% (individuals),[2]; 2240 g ae/ha,0
same,% Injury Ave,[2]; 2240 g ae/ha,5.0%
same,rate to which robust tolerance is provided,[2]; T0 tobacco,at least 2240 g ae/ha
"C[C@@H](Oc1ccc(Cl)cc1Cl)C(=O)O [R-dichloroprop, R-dichlorprop]",% Injury 20-40% (individuals),[3],0
same,% Injury <20% (individuals),[3],0
same,% Injury >40% (individuals),[3],20
same,% Injury Ave,[3],100%
Nc1c(Cl)c(F)nc(OCC(=O)O)c1Cl [fluoroxypyr],Ave. % Injury 14DAT,[4]; 200 g ae/ha foliar-applied,10%
same,Ave. % Injury 14DAT,[4]; 400 g ae/ha foliar-applied,16%
same,Ave. % Injury 14DAT,[4]; 800 g ae/ha foliar-applied,55%
same,rate up to which robust resistance is provided,[4]; foliar application,up to 400 g ae/ha
O=C(O)COc1nc(Cl)c(Cl)cc1Cl [triclopyr],Ave. % Injury 14DAT,[4]; 200 g ae/ha foliar-applied,75%
same,Ave. % Injury 14DAT,[4]; 400 g ae/ha foliar-applied,90%
same,Ave. % Injury 14DAT,[4]; 800 g ae/ha foliar-applied,100%
